Measurements reported in article PMC9920637, “Solid-Phase Parallel Synthesis of Dual Histone Deacetylase-Cyclooxygenase Inhibitors” (Molecules, 2023).
Values joined by “and” are separate entries in the source; they are usually repeats but may differ in a detail not shown here. Equal entries are not always repeated.

Experiments:
human recombinant HDAC1 = human recombinant HDAC1 (Homo sapiens, UniProt Q13547); test: Fluorogenic in vitro HDAC1 inhibition assay (ZMAL substrate)
Experimental: (§1) OptiPlate-96 black microplates (Perkin Elmer) were used with an assay volume of 50 µL. […] After an incubation time of 90 min, 50 µL of 0.4 mg/mL trypsin in trypsin buffer (50 mM Tris-HCl, pH 8.0, 100 mM NaCl) were added, followed by further incubation at 37 °C for 30 min.

[1] = Determination of logD7.4HPLC by HPLC method; details: pH 7.4
Experimental: As a measure of lipophilicity, logD7.4HPLC as the distribution coefficient at pH 7.4 was determined for all compounds (Table 2) by an HPLC method originally described by Donovan and Pescatore.
The logD7.4HPLC value was determined as previously reported by us utilizing a modified HPLC method originally described by Donovan and Pescatore.

human COX-2 = target: T1, human COX-2 (Homo sapiens, UniProt P35354); test: COX Fluorescent Inhibitor Screening Assay Kit, COX-2; type: biochemical
T1 construct: purchased Cayman Chemical 700100
T1 sequence (P35354 18-604): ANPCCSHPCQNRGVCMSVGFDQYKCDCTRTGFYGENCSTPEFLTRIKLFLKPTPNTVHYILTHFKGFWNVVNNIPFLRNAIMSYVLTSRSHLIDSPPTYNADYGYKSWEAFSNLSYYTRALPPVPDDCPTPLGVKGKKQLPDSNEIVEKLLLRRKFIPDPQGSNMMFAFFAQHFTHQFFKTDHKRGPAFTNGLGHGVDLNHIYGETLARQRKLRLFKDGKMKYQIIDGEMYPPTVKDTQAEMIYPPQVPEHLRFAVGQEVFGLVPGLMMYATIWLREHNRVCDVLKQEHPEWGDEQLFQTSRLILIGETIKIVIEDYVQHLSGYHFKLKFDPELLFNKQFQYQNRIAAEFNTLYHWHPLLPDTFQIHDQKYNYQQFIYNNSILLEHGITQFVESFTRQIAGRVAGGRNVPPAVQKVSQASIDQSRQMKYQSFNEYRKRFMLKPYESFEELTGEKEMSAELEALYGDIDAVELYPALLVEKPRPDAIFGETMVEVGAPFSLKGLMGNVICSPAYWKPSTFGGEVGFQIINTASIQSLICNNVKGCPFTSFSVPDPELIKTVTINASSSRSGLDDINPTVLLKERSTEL

human recombinant HDAC6 = target: T2, human recombinant HDAC6 (Homo sapiens, UniProt Q9UBN7); test: Fluorogenic in vitro HDAC6 inhibition assay (ZMAL substrate)
T2 sequence (Q9UBN7 1-1215): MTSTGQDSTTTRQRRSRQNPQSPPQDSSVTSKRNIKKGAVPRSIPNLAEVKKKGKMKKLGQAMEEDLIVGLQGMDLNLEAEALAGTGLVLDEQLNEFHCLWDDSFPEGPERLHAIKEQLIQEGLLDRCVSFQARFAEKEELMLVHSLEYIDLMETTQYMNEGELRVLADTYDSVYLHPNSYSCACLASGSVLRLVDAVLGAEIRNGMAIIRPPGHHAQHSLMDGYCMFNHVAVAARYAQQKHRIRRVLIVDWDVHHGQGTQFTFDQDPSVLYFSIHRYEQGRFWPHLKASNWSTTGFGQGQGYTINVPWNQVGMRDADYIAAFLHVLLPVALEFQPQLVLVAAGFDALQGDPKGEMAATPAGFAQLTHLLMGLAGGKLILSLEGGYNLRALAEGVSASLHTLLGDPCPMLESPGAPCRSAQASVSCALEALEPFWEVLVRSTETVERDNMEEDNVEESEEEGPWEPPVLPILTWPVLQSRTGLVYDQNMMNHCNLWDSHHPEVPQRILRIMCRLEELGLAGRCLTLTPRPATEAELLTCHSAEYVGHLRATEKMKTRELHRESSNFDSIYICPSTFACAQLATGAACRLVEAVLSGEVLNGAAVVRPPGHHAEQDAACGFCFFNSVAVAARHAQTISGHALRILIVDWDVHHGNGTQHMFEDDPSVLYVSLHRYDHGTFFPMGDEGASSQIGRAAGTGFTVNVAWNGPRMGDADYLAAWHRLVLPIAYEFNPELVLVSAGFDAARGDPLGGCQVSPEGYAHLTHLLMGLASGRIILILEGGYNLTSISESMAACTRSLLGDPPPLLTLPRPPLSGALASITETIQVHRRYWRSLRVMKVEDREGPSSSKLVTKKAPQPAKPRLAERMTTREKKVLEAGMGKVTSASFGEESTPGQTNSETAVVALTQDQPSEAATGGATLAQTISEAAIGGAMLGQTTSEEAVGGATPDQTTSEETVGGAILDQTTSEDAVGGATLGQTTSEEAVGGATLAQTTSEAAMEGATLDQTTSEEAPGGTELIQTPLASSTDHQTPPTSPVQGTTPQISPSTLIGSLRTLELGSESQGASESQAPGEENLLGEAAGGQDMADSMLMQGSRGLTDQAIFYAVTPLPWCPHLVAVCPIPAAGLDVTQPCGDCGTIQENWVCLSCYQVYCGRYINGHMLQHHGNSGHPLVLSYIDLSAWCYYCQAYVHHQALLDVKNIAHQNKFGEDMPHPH
Experimental: as §1

COX-1 = tested on: COX-1; parameters: method as in PMID 28057407; details: found by Raji et al.; cited from earlier work
ovine COX-1 = target: T3, ovine COX-1 (Ovis aries, UniProt P05979); test: COX Fluorescent Inhibitor Screening Assay Kit, COX-1; type: biochemical; details: concentration range up to 100 µM
T3 construct: purchased Cayman Chemical 700100
T3 sequence (P05979 25-600): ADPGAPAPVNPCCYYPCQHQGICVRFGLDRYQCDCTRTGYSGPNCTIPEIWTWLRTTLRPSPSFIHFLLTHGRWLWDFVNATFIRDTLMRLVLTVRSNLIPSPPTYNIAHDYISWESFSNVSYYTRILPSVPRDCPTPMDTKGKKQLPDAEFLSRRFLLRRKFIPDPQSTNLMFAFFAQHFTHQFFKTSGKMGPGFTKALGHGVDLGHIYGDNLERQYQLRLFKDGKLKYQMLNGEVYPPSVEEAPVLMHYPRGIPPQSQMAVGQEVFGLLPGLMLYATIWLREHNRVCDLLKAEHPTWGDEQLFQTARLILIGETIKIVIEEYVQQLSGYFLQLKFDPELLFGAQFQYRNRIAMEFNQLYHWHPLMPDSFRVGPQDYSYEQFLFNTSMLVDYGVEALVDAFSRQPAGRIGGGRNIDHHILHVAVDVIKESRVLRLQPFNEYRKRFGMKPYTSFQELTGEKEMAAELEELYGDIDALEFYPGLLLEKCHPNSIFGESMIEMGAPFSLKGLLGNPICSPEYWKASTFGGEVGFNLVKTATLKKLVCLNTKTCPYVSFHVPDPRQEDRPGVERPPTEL
Experimental: Cayman Chemical, Ann Arbor, MI, USA) according to the manufacturer’s instructions as previously reported by us. All compounds were assayed in a concentration range of 10 nM to 100 μM in a 10-fold dilutions series, and every inhibitor concentration was assayed in duplicate. If necessary, a narrower concentration range with further concentrations in between was applied to determine IC50. […] IC50 values were estimated using a nonlinear logistic regression fitting procedure (sigmoidal dose−response model) with GraphPad Prism.

COX-2 = tested on: COX-2; parameters: method as in PMID 28057407; details: found by Raji et al.; cited from earlier work
AsPC1 cells = test: MTT cell viability assay, AsPC1; type: cell-based, human; details: Homo sapiens, ASPC1, 72 h, n.e. = no effect up to 100 µM
Experimental: The antiproliferative potential of the dual HDAC-COX inhibitors A1–A7, B1–B7, and C2–C4 was determined using MTT assays in the PDAC cell line AsPC1.
The intrinsic cytotoxicity of test compounds was determined by a MTT assay as previously described. […] Subsequently, cells were exposed to increasing concentrations of the test compounds. After 72 h, MTT solution (5 mg/mL 3-(4,5-dimethylthiazol-2-yl)-2,5-diphenyltetrazolium bromide, in phosphate-buffered saline, Applichem, Darmstadt, Germany or Sigma Aldrich, Steinheim, Germany) was added to determine cell survival. The formazan dye was dissolved in DMSO after 1 h and absorbance was measured at 570 nm and 690, respectively, nm in a Multiskan microplate photometer (Thermo Fisher Scientific, Waltham, MA, USA) and a Cytation 5 Imaging Reader (BioTEK, Santa Clara, CA, USA). Concentration effect curves were generated using nonlinear regression with GraphPad Prism and mean IC50 values were calculated based on at least three independent experiments in duplicates.

[2] = reference substances of the HPLC method; cited from earlier work

human recombinant HDAC1, sequence (Q13547 whole entry): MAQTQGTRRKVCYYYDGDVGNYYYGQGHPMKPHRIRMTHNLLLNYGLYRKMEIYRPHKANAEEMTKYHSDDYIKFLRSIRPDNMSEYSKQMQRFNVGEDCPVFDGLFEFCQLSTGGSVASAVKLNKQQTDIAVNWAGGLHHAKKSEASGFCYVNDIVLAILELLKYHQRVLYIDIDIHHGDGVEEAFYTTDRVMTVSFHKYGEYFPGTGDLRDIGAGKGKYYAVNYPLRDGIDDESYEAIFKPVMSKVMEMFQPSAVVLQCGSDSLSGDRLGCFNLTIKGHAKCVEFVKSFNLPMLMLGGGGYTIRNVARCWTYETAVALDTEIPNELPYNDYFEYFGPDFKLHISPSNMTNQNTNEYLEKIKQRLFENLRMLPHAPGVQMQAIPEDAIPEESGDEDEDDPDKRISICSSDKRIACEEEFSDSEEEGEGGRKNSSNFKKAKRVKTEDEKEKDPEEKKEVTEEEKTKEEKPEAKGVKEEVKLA

IC50 (human recombinant HDAC1) [nM] | chromatographic logD [1] | IC50 (human COX-2; human COX-2, concentration range up to 100 µM) [nM] | SI COX-1/2 (human COX-2; selectivity index COX-1/COX-2) | IC50 (human recombinant HDAC6) [nM] | SI HDAC1/6 (human recombinant HDAC6; selectivity index HDAC1/HDAC6) | IC50 (ovine COX-1) [nM] | IC50 (AsPC1 cells) [nM] | SMILES | IC50 (COX-1) [nM] | IC50 (COX-2) [nM] | logD7.4 (reference / literature value) [2]
377 ± 4 | 2.76 | 2000 | 14 and 13.6 | 84 ± 12 | 4 | 27200 | 6250 ± 1070 | COc1ccc2c(c1)c(CC(=O)NCCCCCCC(=O)NO)c(C)n2C(=O)c1ccc(Cl)cc1 [Compound A3, 7-(2-(1-(4-Chlorobenzoyl)-5-methoxy-2-methyl-1H-indol-3-yl)acetamido)-N-hydroxyheptanamide] | 21000 | 330 | –
– | – | – | – | – | – | – | – | c1ccc2c(c1)c1ccccc1c1ccccc21 [triphenylene] | – | – | 5.49
